According to US8263605B2, “Modulators of muscarinic receptors” (Vertex Pharmaceutical Incorporated, priority 2006, dated 2012):

Key:
M1 muscarinic receptor = target: T1, M1 muscarinic receptor (Homo sapiens, UniProt P11229); assay: Functional mobilization of intracellular calcium (FLIPR), M1-CHO cells; assay type: cell-based; details: for Emax: 100% efficacy is the maximum response obtained with the Carbachol control; for M1 Activity: CHO cells expressing M1, calcium mobilization
T1 construct: expressed in transfected cells; host or cells: CHO (M1-CHO)
T1 sequence (P11229 1-460): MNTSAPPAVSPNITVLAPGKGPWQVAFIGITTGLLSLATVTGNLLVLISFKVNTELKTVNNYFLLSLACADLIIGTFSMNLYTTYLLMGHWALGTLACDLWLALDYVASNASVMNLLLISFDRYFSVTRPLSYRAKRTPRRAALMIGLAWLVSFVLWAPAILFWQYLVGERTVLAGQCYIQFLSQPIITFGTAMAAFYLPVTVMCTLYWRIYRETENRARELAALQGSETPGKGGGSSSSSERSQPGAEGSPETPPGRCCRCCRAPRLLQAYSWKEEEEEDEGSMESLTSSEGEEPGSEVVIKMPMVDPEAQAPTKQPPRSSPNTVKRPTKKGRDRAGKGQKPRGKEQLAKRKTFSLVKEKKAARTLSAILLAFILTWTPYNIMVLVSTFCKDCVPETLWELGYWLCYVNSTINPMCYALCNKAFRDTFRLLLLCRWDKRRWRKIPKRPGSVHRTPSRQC
Summary of the method: (§1)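 Recombinant CHO cells loaded with Fluo-3 AM or Calcium 3 dye; fluorescence recorded 60 s on FLIPR in pH 7.4 buffer with 1 mM probenecid, 0.5% DMSO. Agonist mode: compound alone; antagonist mode: 15 min preincubation (or co-application) then carbachol at EC80. Efficacy relative to maximal carbachol response.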

M4 muscarinic receptor = target: T2, M4 muscarinic receptor (Homo sapiens, UniProt P08173); assay: Functional mobilization of intracellular calcium (FLIPR), M4-CHO cells; assay type: cell-based; details: for Emax: 100% efficacy is the maximum response obtained with the Carbachol control; for M4 Activity: CHO cells expressing M4, calcium mobilization
T2 construct: expressed in transfected cells; host or cells: CHO (M4-CHO)
T2 sequence (P08173 1-479): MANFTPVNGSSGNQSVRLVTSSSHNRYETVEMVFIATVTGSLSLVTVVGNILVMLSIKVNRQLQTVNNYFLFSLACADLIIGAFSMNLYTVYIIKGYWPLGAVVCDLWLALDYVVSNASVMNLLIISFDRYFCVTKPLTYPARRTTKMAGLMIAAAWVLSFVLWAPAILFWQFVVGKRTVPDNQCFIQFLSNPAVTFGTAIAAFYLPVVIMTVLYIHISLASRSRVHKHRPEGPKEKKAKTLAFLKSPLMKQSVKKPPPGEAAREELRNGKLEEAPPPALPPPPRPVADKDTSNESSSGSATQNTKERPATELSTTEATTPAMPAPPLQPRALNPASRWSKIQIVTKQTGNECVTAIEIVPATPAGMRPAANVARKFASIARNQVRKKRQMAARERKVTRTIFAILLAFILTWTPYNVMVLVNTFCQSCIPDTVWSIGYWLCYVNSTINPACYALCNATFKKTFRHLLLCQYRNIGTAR
Summary of the method: as §1

SMILES | Emax (M1 muscarinic receptor) [%] | M1 Activity (M1 muscarinic receptor) | Emax (M4 muscarinic receptor) [%] | M4 Activity (M4 muscarinic receptor)
Cc1nsc(N2CCC(N3CCC4(CC3)CN(C(=O)N(C)C)c3ccccc34)CC2)n1 [compound 53] | 25 to 100 | +++ (activity was measured to be less than 2.0 μM) | > 100 | +++ (activity was measured to be less than 2.0 μM)
COC(=O)N1CC[C@@H](CN2CCC3(CC2)CN(C(=O)N(C)C)c2ccccc23)C1 [compound 54] | 25 to 100 | +++ (activity was measured to be less than 2.0 μM) | 25 to 100 | +++ (activity was measured to be less than 2.0 μM)
CCCOC(=O)N1CC[C@@H](CN2CCC3(CC2)CN(C(=O)N(C)C)c2ccccc23)C1 [compound 55] | < 25 | ++ (activity was measured to be from 2.0 μM to 10.0 μM) | 25 to 100 | +++ (activity was measured to be less than 2.0 μM)
CC(C)OC(=O)N1CC[C@@H](CN2CCC3(CC2)CN(C(=O)N(C)C)c2ccccc23)C1 [compound 56] | 25 to 100 | ++ (activity was measured to be from 2.0 μM to 10.0 μM) | 25 to 100 | +++ (activity was measured to be less than 2.0 μM)
CN(C)C(=O)N1CC2(CCN(C[C@@H]3CCN(C(=O)OCC(F)F)C3)CC2)c2ccccc21 [compound 57] | 25 to 100 | +++ (activity was measured to be less than 2.0 μM) | 25 to 100 | +++ (activity was measured to be less than 2.0 μM)
COCCOC(=O)N1CC[C@@H](CN2CCC3(CC2)CN(C(=O)N(C)C)c2ccccc23)C1 [compound 58] | 25 to 100 | ++ (activity was measured to be from 2.0 μM to 10.0 μM) | 25 to 100 | +++ (activity was measured to be less than 2.0 μM)
COC(=O)N1CC[C@H](CN2CCC3(CC2)CN(C(=O)N(C)C)c2ccccc23)C1 [compound 59] | 25 to 100 | +++ (activity was measured to be less than 2.0 μM) | 25 to 100 | +++ (activity was measured to be less than 2.0 μM)
CCOC(=O)N1CC[C@H](CN2CCC3(CC2)CN(C(=O)N(C)C)c2ccccc23)C1 [compound 60] | 25 to 100 | +++ (activity was measured to be less than 2.0 μM) | 25 to 100 | +++ (activity was measured to be less than 2.0 μM)
CCCOC(=O)N1CC[C@H](CN2CCC3(CC2)CN(C(=O)N(C)C)c2ccccc23)C1 [compound 61] | < 25 | ++ (activity was measured to be from 2.0 μM to 10.0 μM) | 25 to 100 | +++ (activity was measured to be less than 2.0 μM)
CC(C)OC(=O)N1CC[C@H](CN2CCC3(CC2)CN(C(=O)N(C)C)c2ccccc23)C1 [compound 62] | 25 to 100 | ++ (activity was measured to be from 2.0 μM to 10.0 μM) | 25 to 100 | +++ (activity was measured to be less than 2.0 μM)
CN(C)C(=O)N1CC2(CCN(C[C@H]3CCN(C(=O)OCC(F)F)C3)CC2)c2ccccc21 [compound 63] | 25 to 100 | +++ (activity was measured to be less than 2.0 μM) | 25 to 100 | +++ (activity was measured to be less than 2.0 μM)
COCCOC(=O)N1CC[C@H](CN2CCC3(CC2)CN(C(=O)N(C)C)c2ccccc23)C1 [compound 64] | 25 to 100 | ++ (activity was measured to be from 2.0 μM to 10.0 μM) | 25 to 100 | +++ (activity was measured to be less than 2.0 μM)
COC(=O)N1CCCC(N2CCC3(CC2)CN(C(=O)N(C)C)c2ccccc23)CC1 (stereo not shown) [compound 67] | 25 to 100 | +++ (activity was measured to be less than 2.0 μM) | 25 to 100 | +++ (activity was measured to be less than 2.0 μM)
CCOC(=O)N1CCCC(N2CCC3(CC2)CN(C(=O)N(C)C)c2ccccc23)CC1 (stereo not shown) [compound 68] | 25 to 100 | +++ (activity was measured to be less than 2.0 μM) | > 100 | +++ (activity was measured to be less than 2.0 μM)
CCCOC(=O)N1CCCC(N2CCC3(CC2)CN(C(=O)N(C)C)c2ccccc23)CC1 (stereo not shown) [compound 69] | 25 to 100 | +++ (activity was measured to be less than 2.0 μM) | 25 to 100 | +++ (activity was measured to be less than 2.0 μM)
CC(C)OC(=O)N1CCCC(N2CCC3(CC2)CN(C(=O)N(C)C)c2ccccc23)CC1 (stereo not shown) [compound 70] | 25 to 100 | ++ (activity was measured to be from 2.0 μM to 10.0 μM) | 25 to 100 | +++ (activity was measured to be less than 2.0 μM)
CN(C)C(=O)N1CC2(CCN(C3CCCN(C(=O)OCC(F)F)CC3)CC2)c2ccccc21 (stereo not shown) [compound 71] | 25 to 100 | +++ (activity was measured to be less than 2.0 μM) | 25 to 100 | +++ (activity was measured to be less than 2.0 μM)
COCCOC(=O)N1CCCC(N2CCC3(CC2)CN(C(=O)N(C)C)c2ccccc23)CC1 (stereo not shown) [compound 72] | 25 to 100 | +++ (activity was measured to be less than 2.0 μM) | 25 to 100 | +++ (activity was measured to be less than 2.0 μM)
CN(C)C(=O)N1CC2(CCN(C3CCCN(C(=O)O[C@@H]4CCOC4)CC3)CC2)c2ccccc21 (stereo partly shown) [compound 73] | < 25 | ++ (activity was measured to be from 2.0 μM to 10.0 μM) | 25 to 100 | +++ (activity was measured to be less than 2.0 μM)
Cc1nsc(C2CCC(N3CCC4(CC3)CN(C(=O)N(C)C)c3ccccc34)CC2)n1 (stereo not shown) [compound 74] | 25 to 100 | +++ (activity was measured to be less than 2.0 μM) | 25 to 100 | +++ (activity was measured to be less than 2.0 μM)
CN(C)C(=O)N1CC2(CCN(C3CCN(c4ncns4)CC3)CC2)c2ccccc21 [compound 75] | 25 to 100 | ++ (activity was measured to be from 2.0 μM to 10.0 μM) | 25 to 100 | +++ (activity was measured to be less than 2.0 μM)
CCc1nsc(N2CCC(N3CCC4(CC3)CN(C(=O)N(C)C)c3ccccc34)CC2)n1 [compound 76] | > 100 | +++ (activity was measured to be less than 2.0 μM) | > 100 | +++ (activity was measured to be less than 2.0 μM)
CN(C)C(=O)N1CC2(CCN(C3CCN(c4cncc(Cl)n4)CC3)CC2)c2ccccc21 [compound 77] | 25 to 100 | +++ (activity was measured to be less than 2.0 μM) | 25 to 100 | +++ (activity was measured to be less than 2.0 μM)
CN(C)C(=O)N1CC2(CCN(C3CCN(c4cnc5ccccc5n4)CC3)CC2)c2ccccc21 [compound 78] | 25 to 100 | +++ (activity was measured to be less than 2.0 μM) | 25 to 100 | +++ (activity was measured to be less than 2.0 μM)
Cc1cncc(N2CCC(N3CCC4(CC3)CN(C(=O)N(C)C)c3ccccc34)CC2)n1 [compound 79] | 25 to 100 | +++ (activity was measured to be less than 2.0 μM) | 25 to 100 | +++ (activity was measured to be less than 2.0 μM)
COC(=O)N1CCCC(N2CCC3(CC2)CN(C(=O)N(C)C)c2ccccc23)CCC1 [compound 80] | 25 to 100 | +++ (activity was measured to be less than 2.0 μM) | > 100 | +++ (activity was measured to be less than 2.0 μM)
CCOC(=O)N1CCC(C)(N2CCC3(CC2)CN(C(=O)N(C)C)c2ccccc23)CC1 [compound 81] | 25 to 100 | +++ (activity was measured to be less than 2.0 μM) | 25 to 100 | +++ (activity was measured to be less than 2.0 μM)
CN(C)C(=O)N1CC2(CCN(C3(C)CCN(c4cnccn4)CC3)CC2)c2ccccc21 [compound 82] | 25 to 100 | ++ (activity was measured to be from 2.0 μM to 10.0 μM) | 25 to 100 | +++ (activity was measured to be less than 2.0 μM)
